Results from ChEMBL document CHEMBL5291721, “A preclinical secondary pharmacology resource illuminates target-adverse drug reaction associations of marketed drugs” (Nat Commun, 2023).

Assays:
[1] = molecular target: Neurotensin receptor type 1 (Homo sapiens, UniProt P30989)
Substance-P receptor = Substance-P receptor (Homo sapiens, UniProt P25103)
[2] = molecular target: Beta-3 adrenergic receptor (Homo sapiens, UniProt P13945)
Histamine H2 receptor = Histamine H2 receptor (Homo sapiens, UniProt P25021)
Histamine H2 receptor, sequence (P25021 whole entry): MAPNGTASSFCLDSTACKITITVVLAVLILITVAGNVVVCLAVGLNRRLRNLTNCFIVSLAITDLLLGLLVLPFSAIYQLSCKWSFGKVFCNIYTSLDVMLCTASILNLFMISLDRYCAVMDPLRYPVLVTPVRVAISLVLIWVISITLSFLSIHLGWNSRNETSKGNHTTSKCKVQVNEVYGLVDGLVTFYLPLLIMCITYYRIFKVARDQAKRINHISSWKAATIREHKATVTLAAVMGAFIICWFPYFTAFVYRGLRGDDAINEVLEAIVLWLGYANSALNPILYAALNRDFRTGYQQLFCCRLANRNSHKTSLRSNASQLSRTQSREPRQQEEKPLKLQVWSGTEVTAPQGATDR

[3] = molecular target: T1, Alpha-2A adrenergic receptor (Homo sapiens, UniProt P08913)
T1 sequence (P08913 whole entry): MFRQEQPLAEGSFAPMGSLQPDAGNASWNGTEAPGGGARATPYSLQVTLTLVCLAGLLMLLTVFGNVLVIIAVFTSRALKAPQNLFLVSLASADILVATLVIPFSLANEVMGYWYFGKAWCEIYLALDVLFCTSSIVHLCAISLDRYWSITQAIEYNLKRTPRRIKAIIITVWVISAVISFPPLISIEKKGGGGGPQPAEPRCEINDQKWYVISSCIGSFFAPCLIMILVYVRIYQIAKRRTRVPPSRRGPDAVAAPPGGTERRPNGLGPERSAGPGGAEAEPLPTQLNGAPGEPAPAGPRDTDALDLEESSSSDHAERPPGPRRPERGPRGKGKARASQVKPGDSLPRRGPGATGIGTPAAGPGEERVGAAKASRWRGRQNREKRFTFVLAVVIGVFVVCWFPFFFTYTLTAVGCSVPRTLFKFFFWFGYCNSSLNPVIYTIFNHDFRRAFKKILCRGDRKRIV

[4] = molecular target: T2, Neuropeptide Y receptor type 2 (Homo sapiens, UniProt P49146)
T2 sequence (P49146 whole entry): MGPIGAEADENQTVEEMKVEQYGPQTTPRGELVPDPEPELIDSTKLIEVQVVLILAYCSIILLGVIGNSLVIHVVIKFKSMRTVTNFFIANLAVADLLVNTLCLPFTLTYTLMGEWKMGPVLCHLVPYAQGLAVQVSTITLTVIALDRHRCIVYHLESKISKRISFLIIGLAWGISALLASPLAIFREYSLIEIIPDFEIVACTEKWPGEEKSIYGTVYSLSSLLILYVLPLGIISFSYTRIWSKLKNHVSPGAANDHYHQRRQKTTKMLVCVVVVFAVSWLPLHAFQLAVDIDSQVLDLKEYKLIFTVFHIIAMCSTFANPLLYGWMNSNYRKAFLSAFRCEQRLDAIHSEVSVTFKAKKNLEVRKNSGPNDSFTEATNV

[5] = molecular target: T3, 5-hydroxytryptamine receptor 1A (Homo sapiens, UniProt P08908)
T3 sequence (P08908 whole entry): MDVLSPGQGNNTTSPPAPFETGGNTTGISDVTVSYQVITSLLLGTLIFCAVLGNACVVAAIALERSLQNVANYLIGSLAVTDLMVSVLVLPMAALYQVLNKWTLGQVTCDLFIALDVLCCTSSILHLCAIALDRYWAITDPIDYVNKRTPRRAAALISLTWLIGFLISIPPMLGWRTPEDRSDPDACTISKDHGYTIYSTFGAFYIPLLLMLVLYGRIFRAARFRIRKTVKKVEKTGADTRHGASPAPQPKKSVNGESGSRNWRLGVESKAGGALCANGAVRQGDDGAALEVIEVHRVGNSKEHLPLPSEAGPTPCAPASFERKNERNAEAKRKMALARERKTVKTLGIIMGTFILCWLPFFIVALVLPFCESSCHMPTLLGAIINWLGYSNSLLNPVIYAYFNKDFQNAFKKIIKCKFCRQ

[6] = molecular target: 5-hydroxytryptamine receptor 7 (Homo sapiens, UniProt P34969)
5-hydroxytryptamine receptor 7, sequence (P34969 whole entry): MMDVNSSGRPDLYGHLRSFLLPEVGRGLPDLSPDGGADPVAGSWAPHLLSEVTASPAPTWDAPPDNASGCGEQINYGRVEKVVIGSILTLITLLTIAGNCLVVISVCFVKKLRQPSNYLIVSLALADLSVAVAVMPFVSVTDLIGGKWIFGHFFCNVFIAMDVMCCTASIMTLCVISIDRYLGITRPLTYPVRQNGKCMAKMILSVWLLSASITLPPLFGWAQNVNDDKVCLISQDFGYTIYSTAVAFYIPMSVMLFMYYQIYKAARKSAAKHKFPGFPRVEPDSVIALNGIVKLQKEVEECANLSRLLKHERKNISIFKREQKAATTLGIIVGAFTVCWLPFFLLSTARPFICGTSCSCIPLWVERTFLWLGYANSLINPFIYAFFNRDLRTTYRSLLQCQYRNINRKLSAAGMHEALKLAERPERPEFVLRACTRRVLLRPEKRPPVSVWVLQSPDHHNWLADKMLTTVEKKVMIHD

B1 bradykinin receptor = molecular target: T4, B1 bradykinin receptor (Homo sapiens, UniProt P46663)
T4 sequence (P46663 whole entry): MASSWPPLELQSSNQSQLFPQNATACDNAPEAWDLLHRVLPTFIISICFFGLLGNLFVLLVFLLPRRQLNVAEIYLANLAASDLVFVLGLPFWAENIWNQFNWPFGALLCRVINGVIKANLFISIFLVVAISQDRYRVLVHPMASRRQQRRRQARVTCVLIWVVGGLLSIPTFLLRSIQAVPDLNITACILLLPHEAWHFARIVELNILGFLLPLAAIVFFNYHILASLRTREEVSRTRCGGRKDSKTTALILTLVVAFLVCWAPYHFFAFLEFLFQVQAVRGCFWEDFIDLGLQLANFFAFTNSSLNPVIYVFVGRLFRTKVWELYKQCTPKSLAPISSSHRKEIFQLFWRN

[7] = molecular target: Sodium channel protein type 5 subunit alpha (Homo sapiens, UniProt Q14524); format: functional, cell-based
Sodium channel protein type 5 subunit alpha, sequence (Q14524 whole entry): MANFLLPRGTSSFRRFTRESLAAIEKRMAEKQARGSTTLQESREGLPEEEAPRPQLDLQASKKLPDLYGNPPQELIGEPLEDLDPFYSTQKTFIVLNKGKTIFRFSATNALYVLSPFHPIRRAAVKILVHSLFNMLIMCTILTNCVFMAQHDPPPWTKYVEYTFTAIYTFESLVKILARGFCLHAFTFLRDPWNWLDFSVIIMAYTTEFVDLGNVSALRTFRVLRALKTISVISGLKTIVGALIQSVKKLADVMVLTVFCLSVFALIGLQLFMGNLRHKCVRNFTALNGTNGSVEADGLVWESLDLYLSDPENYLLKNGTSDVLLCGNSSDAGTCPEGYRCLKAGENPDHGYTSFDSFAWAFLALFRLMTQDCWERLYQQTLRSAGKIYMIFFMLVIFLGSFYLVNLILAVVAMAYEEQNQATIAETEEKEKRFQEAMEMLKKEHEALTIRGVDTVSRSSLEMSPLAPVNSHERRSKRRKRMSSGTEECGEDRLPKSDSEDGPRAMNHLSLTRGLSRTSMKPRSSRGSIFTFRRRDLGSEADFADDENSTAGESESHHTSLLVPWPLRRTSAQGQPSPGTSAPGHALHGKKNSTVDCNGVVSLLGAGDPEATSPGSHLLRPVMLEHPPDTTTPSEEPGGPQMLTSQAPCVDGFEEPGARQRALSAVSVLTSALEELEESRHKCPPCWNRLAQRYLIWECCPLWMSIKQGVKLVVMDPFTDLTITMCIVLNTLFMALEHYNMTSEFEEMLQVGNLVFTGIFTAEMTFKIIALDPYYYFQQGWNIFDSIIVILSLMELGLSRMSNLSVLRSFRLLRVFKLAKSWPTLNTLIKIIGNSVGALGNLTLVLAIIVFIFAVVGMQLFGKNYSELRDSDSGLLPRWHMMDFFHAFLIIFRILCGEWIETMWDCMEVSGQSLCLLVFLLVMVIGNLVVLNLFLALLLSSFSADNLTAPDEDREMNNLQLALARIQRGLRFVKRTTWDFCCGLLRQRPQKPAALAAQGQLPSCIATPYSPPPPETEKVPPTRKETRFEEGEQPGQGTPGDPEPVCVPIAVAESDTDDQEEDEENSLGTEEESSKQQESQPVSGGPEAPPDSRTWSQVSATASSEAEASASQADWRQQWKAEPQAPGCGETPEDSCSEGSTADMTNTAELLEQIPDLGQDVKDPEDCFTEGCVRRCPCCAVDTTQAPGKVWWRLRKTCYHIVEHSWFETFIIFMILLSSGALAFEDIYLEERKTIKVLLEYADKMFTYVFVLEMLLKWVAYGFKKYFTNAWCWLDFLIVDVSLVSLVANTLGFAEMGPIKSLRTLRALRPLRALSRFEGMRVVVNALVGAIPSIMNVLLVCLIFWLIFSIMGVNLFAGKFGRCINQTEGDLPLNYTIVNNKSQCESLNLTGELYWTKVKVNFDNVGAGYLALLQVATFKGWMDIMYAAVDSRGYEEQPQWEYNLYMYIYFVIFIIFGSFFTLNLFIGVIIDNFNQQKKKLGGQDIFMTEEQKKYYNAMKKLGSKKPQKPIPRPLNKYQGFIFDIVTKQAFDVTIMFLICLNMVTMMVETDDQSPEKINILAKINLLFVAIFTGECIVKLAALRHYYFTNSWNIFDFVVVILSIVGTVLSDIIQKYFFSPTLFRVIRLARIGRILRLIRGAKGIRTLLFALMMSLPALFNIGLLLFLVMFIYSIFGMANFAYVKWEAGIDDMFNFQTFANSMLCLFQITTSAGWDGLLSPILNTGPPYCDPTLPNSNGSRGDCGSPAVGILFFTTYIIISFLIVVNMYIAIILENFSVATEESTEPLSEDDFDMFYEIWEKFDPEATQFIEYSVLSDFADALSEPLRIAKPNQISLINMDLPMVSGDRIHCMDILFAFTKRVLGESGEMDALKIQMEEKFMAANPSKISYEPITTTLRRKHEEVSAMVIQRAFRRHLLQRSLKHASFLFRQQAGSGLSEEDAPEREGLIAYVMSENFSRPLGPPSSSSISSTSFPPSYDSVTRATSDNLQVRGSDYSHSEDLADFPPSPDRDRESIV

[8] = molecular target: T5, Muscarinic acetylcholine receptor M2 (Homo sapiens, UniProt P08172)
T5 sequence (P08172 whole entry): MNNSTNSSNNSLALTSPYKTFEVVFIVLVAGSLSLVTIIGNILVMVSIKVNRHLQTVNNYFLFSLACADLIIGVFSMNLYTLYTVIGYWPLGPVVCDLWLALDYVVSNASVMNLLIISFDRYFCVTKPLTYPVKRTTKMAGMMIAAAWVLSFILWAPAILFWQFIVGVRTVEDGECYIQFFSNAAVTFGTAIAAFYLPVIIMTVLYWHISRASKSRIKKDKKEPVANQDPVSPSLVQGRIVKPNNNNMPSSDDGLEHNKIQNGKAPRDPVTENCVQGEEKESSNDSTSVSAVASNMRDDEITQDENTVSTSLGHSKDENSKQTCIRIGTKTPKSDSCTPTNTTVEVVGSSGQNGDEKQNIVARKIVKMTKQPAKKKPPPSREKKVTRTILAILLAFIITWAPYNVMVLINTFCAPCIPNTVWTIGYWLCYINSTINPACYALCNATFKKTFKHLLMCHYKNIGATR

[9] = molecular target: T6, Muscarinic acetylcholine receptor M1 (Homo sapiens, UniProt P11229); format: functional, cell-based
T6 sequence (P11229 whole entry): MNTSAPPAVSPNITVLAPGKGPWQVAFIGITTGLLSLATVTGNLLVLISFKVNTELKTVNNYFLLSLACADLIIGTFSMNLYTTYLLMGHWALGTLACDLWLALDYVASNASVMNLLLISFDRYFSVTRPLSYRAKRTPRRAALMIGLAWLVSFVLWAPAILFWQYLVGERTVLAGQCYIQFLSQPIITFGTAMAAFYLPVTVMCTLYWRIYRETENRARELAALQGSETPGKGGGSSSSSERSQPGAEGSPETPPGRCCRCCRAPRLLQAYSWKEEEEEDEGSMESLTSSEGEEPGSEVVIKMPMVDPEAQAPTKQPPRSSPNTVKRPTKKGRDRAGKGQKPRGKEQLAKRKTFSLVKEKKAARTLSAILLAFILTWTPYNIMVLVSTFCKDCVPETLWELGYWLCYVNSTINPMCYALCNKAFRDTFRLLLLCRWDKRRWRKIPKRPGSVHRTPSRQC
Note: assay procedure not described here.

Substance-P receptor, sequence (P25103 whole entry): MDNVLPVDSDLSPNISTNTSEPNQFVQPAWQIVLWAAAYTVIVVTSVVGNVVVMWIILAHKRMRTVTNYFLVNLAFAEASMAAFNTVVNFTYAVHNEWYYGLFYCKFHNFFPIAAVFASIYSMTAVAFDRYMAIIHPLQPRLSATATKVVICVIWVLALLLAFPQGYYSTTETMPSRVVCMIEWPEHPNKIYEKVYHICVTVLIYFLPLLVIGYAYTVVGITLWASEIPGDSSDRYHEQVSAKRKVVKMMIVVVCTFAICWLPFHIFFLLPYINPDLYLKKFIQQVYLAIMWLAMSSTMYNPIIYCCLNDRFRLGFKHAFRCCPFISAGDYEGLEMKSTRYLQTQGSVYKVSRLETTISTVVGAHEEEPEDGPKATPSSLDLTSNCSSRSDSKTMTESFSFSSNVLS
Beta-3 adrenergic receptor, sequence (P13945 whole entry): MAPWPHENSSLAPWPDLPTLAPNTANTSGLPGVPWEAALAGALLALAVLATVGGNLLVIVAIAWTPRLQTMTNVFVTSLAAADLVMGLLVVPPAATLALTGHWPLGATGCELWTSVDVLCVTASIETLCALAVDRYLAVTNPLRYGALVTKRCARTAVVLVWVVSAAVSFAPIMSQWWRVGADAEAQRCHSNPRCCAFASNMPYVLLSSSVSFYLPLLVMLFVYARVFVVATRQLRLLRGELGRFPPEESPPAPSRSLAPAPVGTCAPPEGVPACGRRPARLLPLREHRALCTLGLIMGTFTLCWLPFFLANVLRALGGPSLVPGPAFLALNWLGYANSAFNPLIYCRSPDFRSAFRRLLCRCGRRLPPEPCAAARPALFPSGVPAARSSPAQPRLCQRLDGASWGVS
Neurotensin receptor type 1, sequence (P30989 whole entry): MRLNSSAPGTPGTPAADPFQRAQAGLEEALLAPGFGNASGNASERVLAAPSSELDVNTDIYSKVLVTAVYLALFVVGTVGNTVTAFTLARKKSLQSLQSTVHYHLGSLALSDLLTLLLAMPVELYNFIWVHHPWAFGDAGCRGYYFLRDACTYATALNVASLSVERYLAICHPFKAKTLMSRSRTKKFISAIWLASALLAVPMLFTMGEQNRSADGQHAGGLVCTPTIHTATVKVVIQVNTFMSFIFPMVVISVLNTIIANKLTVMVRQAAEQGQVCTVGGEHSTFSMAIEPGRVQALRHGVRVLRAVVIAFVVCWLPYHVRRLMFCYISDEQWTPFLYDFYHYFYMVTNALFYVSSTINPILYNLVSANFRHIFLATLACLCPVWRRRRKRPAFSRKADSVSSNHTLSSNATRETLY

AC50 [1] [µM] | AC50 (Substance-P receptor) [µM] | AC50 (Histamine H2 receptor) [µM] | AC50 [3] [µM] | AC50 [4] [µM] | AC50 [5] [µM] | AC50 (B1 bradykinin receptor) [µM] | AC50 [8] [µM] | SMILES | AC50 [2] [µM] | AC50 [6] [µM] | AC50 [7] [µM] | AC50 [9] [µM]
> 30 | > 10 | > 10 | > 10 | > 30 | > 10 | > 30 | > 10 | CCOC(=O)[C@H](CCc1ccccc1)N[C@@H](C)C(=O)N1CCC[C@H]1C(=O)O | > 30 | > 10 | > 30 | 
> 30 | > 10 | 0.0063 | > 10 | > 30 | > 10 | > 30 | > 10 | NC(N)=Nc1nc(CSCCC(N)=NS(N)(=O)=O)cs1 [FAMOTIDINE] | > 30 | > 10 |  | 
 |  |  |  |  |  |  |  | CCCS(=O)(=O)Nc1ccc(F)c(C(=O)c2c[nH]c3ncc(-c4ccc(Cl)cc4)cc23)c1F [VEMURAFENIB] |  |  | > 30 | 
 |  |  |  |  |  |  |  | O=C1c2c(O)c(=O)ccn2N([C@@H]2c3ccccc3SCc3c2ccc(F)c3F)[C@@H]2COCCN12 [BALOXAVIR] |  |  | > 50 | > 30
> 30 | > 10 | > 10 | > 10 | > 30 | > 10 | > 30 | > 10 | NS(=O)(=O)c1cc2c(cc1Cl)NCNS2(=O)=O [HYDROCHLOROTHIAZIDE] | > 30 | > 10 |  | 
 |  |  |  |  |  |  |  | CS(=O)(=O)c1ccc([C@@H](O)[C@@H](CO)NC(=O)C(Cl)Cl)cc1 [THIAMPHENICOL] |  |  | > 50 | 
 |  |  |  |  |  |  |  | CC(C)OC(=O)[C@H](C)N[P@](=O)(OC[C@H]1O[C@@H](n2ccc(=O)[nH]c2=O)[C@](C)(F)[C@@H]1O)Oc1ccccc1 [SOFOSBUVIR] |  |  | > 50 | > 30
 |  |  |  |  |  |  |  | COC(=O)C1=C(C)NC(C)=C(C(=O)OCC(C)C)C1c1ccccc1[N+](=O)[O-] (stereo unspecified) [NISOLDIPINE] |  |  | 8.6 | 
> 30 | > 10 | > 10 | > 10 | > 30 | > 10 | > 30 | > 10 | CC(C)NCC(O)COc1ccc(COCCOC(C)C)cc1 (stereo unspecified) [BISOPROLOL] |  |  | > 30 | 
 |  |  |  |  |  |  |  | O=C(COc1ccc(Cl)cc1)N1CCN(Cc2ccc3c(c2)OCO3)CC1 [FIPEXIDE] |  |  | > 50 | 6.27
 |  |  |  |  |  |  |  | COC(=O)N[C@H](C(=O)N1CCC[C@H]1c1nc(-c2ccc(-c3ccc(-c4c[nH]c([C@@H]5CCCN5C(=O)[C@@H](NC(=O)OC)C(C)C)n4)cc3)cc2)c[nH]1)C(C)C |  |  | > 30 | 
 |  |  |  |  |  |  |  | OCc1cc([C@@H](O)CNCCCCCCOCCOCc2c(Cl)cccc2Cl)ccc1O [VILANTEROL] |  |  | 5 | 
 |  |  |  |  |  |  |  | O=C(NC[C@H]1CN(c2ccc(N3CCOCC3=O)cc2)C(=O)O1)c1ccc(Cl)s1 [RIVAROXABAN] |  |  | > 50 | > 3
 |  |  |  |  |  |  |  | CCOC(=O)N[C@@H]1CC[C@@H]2[C@@H](C1)C[C@H]1C(=O)O[C@H](C)[C@H]1[C@H]2/C=C/c1ccc(-c2cccc(F)c2)cn1 [VORAPAXAR] |  |  | > 50 | 26.3

SMILES | AC50 [1] [µM] | AC50 (Substance-P receptor) [µM] | AC50 (Histamine H2 receptor) [µM] | AC50 [3] [µM] | AC50 [4] [µM] | AC50 [5] [µM] | AC50 (B1 bradykinin receptor) [µM] | AC50 [8] [µM] | AC50 [2] [µM] | AC50 [6] [µM] | AC50 [7] [µM] | AC50 [9] [µM]
C#C[C@]1(O)CC[C@H]2[C@@H]3CCc4cc(O)ccc4[C@H]3CC[C@@]21C [ETHINYL ESTRADIOL] | > 30 | > 10 | > 10 | > 10 | > 30 | > 10 | > 30 | > 10 | 35.4 | > 30 | > 30 | 
Nc1nc(N)c2nc(-c3ccccc3)c(N)nc2n1 | > 30 | > 10 | > 10 | > 10 | > 30 | > 10 | > 10 | > 10 | > 30 | > 10 |  | 
C[C@H]1O[C@H](O[C@H]2[C@H](O)[C@@H](O)[C@@H](O[C@H]3[C@H](O)[C@@H](O)C(O)O[C@@H]3CO)O[C@@H]2CO)[C@H](O)[C@@H](O)[C@@H]1N[C@H]1C=C(CO)[C@@H](O)[C@H](O)[C@H]1O (stereo partly specified) [ACARBOSE] | > 30 | > 10 | > 10 | > 10 | > 30 | > 10 | > 30 | > 10 | > 30 | > 10 |  | 
